Reference: patent US8192962B2, “Processes for detecting toxic substances” (Daikin Industries, Ltd., priority 2001, dated 2012)

Tested on: Genes belonging to other category
Assay: DNA chip mRNA expression in yeast, genes belonging to other category (Table 9)
Format: cell-based, Saccharomyces cerevisiae S288C
Summary of the method: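 Measured as treated-to-untreated fluorescence ratio on a full-genome yeast DNA chip. Cells (S288C, YPD, 25° C.) were exposed in log phase for two hours to one chemical, dosed to curb growth without killing.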

N#Cc1c(Cl)c(Cl)c(Cl)c(C#N)c1Cl [(9), 2,4,5,6-tetrachloro-1,3-benzenedicarbonitrile]
The level of expressed mRNA in the presence of chemical substance/The level of expressed mRNA in the absence of chemical substance (yeast gene YMR297W): 1.9
The level of expressed mRNA in the presence of chemical substance/The level of expressed mRNA in the absence of chemical substance (yeast gene YMR314W): 5.9
The level of expressed mRNA in the presence of chemical substance/The level of expressed mRNA in the absence of chemical substance (yeast gene YNL006W): 4.0
The level of expressed mRNA in the presence of chemical substance/The level of expressed mRNA in the absence of chemical substance (yeast gene YNL007C): 3.0
The level of expressed mRNA in the presence of chemical substance/The level of expressed mRNA in the absence of chemical substance (yeast gene YNL036W): 6.6
The level of expressed mRNA in the presence of chemical substance/The level of expressed mRNA in the absence of chemical substance (yeast gene YNL039W): 2.1
The level of expressed mRNA in the presence of chemical substance/The level of expressed mRNA in the absence of chemical substance (yeast gene YNL093W): 1.7
The level of expressed mRNA in the presence of chemical substance/The level of expressed mRNA in the absence of chemical substance (yeast gene YNL147W): 2.1
The level of expressed mRNA in the presence of chemical substance/The level of expressed mRNA in the absence of chemical substance (yeast gene YNL214W): 1.5
The level of expressed mRNA in the presence of chemical substance/The level of expressed mRNA in the absence of chemical substance (yeast gene YNL333W): 2.3
The level of expressed mRNA in the presence of chemical substance/The level of expressed mRNA in the absence of chemical substance (yeast gene YNR010W): 1.7
The level of expressed mRNA in the presence of chemical substance/The level of expressed mRNA in the absence of chemical substance (yeast gene YNR037C): 1.3
The level of expressed mRNA in the presence of chemical substance/The level of expressed mRNA in the absence of chemical substance (yeast gene YNR069C): 5.5
The level of expressed mRNA in the presence of chemical substance/The level of expressed mRNA in the absence of chemical substance (yeast gene YOL013C): 0.8
The level of expressed mRNA in the presence of chemical substance/The level of expressed mRNA in the absence of chemical substance (yeast gene YOL164W): 4.9
The level of expressed mRNA in the presence of chemical substance/The level of expressed mRNA in the absence of chemical substance (yeast gene YOR036W): 1.2
The level of expressed mRNA in the presence of chemical substance/The level of expressed mRNA in the absence of chemical substance (yeast gene YOR058C): 6.4
The level of expressed mRNA in the presence of chemical substance/The level of expressed mRNA in the absence of chemical substance (yeast gene YOR069W): 1.9
The level of expressed mRNA in the presence of chemical substance/The level of expressed mRNA in the absence of chemical substance (yeast gene YOR117W): 3.5
The level of expressed mRNA in the presence of chemical substance/The level of expressed mRNA in the absence of chemical substance (yeast gene YOR124C): 2.0
The level of expressed mRNA in the presence of chemical substance/The level of expressed mRNA in the absence of chemical substance (yeast gene YOR132W): 2.8
The level of expressed mRNA in the presence of chemical substance/The level of expressed mRNA in the absence of chemical substance (yeast gene YOR134W): 1.5
The level of expressed mRNA in the presence of chemical substance/The level of expressed mRNA in the absence of chemical substance (yeast gene YOR149C): 0.4
The level of expressed mRNA in the presence of chemical substance/The level of expressed mRNA in the absence of chemical substance (yeast gene YOR157C): 5.7
The level of expressed mRNA in the presence of chemical substance/The level of expressed mRNA in the absence of chemical substance (yeast gene YOR165W): 0.8
The level of expressed mRNA in the presence of chemical substance/The level of expressed mRNA in the absence of chemical substance (yeast gene YOR181W): 0.6
The level of expressed mRNA in the presence of chemical substance/The level of expressed mRNA in the absence of chemical substance (yeast gene YOR185C): 1.9
The level of expressed mRNA in the presence of chemical substance/The level of expressed mRNA in the absence of chemical substance (yeast gene YOR198C): 2.4
The level of expressed mRNA in the presence of chemical substance/The level of expressed mRNA in the absence of chemical substance (yeast gene YOR256C): 2.7
The level of expressed mRNA in the presence of chemical substance/The level of expressed mRNA in the absence of chemical substance (yeast gene YOR259C): 2.7
The level of expressed mRNA in the presence of chemical substance/The level of expressed mRNA in the absence of chemical substance (yeast gene YOR261C): 5.5
The level of expressed mRNA in the presence of chemical substance/The level of expressed mRNA in the absence of chemical substance (yeast gene YOR285W): 4.0
The level of expressed mRNA in the presence of chemical substance/The level of expressed mRNA in the absence of chemical substance (yeast gene YOR288C): 0.9
The level of expressed mRNA in the presence of chemical substance/The level of expressed mRNA in the absence of chemical substance (yeast gene YOR327C): 1.4
The level of expressed mRNA in the presence of chemical substance/The level of expressed mRNA in the absence of chemical substance (yeast gene YOR355W): 0.1
The level of expressed mRNA in the presence of chemical substance/The level of expressed mRNA in the absence of chemical substance (yeast gene YOR362C): 4.3
The level of expressed mRNA in the presence of chemical substance/The level of expressed mRNA in the absence of chemical substance (yeast gene YOR383C): 1.2
The level of expressed mRNA in the presence of chemical substance/The level of expressed mRNA in the absence of chemical substance (yeast gene YPL001W): 0.7
The level of expressed mRNA in the presence of chemical substance/The level of expressed mRNA in the absence of chemical substance (yeast gene YPL018W): 1.4
The level of expressed mRNA in the presence of chemical substance/The level of expressed mRNA in the absence of chemical substance (yeast gene YPL020C): 2.3
The level of expressed mRNA in the presence of chemical substance/The level of expressed mRNA in the absence of chemical substance (yeast gene YPL089C): 0.4
The level of expressed mRNA in the presence of chemical substance/The level of expressed mRNA in the absence of chemical substance (yeast gene YPL109C): 1.2
The level of expressed mRNA in the presence of chemical substance/The level of expressed mRNA in the absence of chemical substance (yeast gene YPL149W): 5.6
The level of expressed mRNA in the presence of chemical substance/The level of expressed mRNA in the absence of chemical substance (yeast gene YPL154C): 2.8
The level of expressed mRNA in the presence of chemical substance/The level of expressed mRNA in the absence of chemical substance (yeast gene YPR066W): 2.3
The level of expressed mRNA in the presence of chemical substance/The level of expressed mRNA in the absence of chemical substance (yeast gene YPR081C): 4.2
The level of expressed mRNA in the presence of chemical substance/The level of expressed mRNA in the absence of chemical substance (yeast gene YPR086W): 3.0
The level of expressed mRNA in the presence of chemical substance/The level of expressed mRNA in the absence of chemical substance (yeast gene YPR103W): 5.5
The level of expressed mRNA in the presence of chemical substance/The level of expressed mRNA in the absence of chemical substance (yeast gene YPR107C): 2.4
The level of expressed mRNA in the presence of chemical substance/The level of expressed mRNA in the absence of chemical substance (yeast gene YPR108W): 3.7
